Consider 18 molecules from patent publication US20220257774A1, “AROMATIC AMINE AR AHD BET TARGETING PROTEIN DEGRADATION CHIMERA COMPOUND AND USE” (HINOVA PHARMACEUTICALS INC., priority 2019, published 2022).

Some results are limits rather than exact numbers.

The subject of one test is LNCaP/AR cells. The experiment in a line: Inhibition of the proliferation of LNCap/AR cells (CCK-8). It is filed as cell-based. The settings on record: 144 h; LNCaP/AR cells, 6 days culture, CCK-8; read-out: LNCap/AR IC50. An excerpt:
1. Biological Assay of the Inhibition on the Proliferation of LNCap/AR Cells
(1) Experimental materials and instruments: LNCaP/AR cell line and 22RV1 cell line (provided by Sichuan Kangcheng Biotechnology Co., Ltd.) Fetal bovine serum FBS (Gibco, Cat. No. 10099-141) 0.01M PBS (Biosharp, Cat. No. 162262) RIPM1640 medium (Hyclone, Cat. No. 308090.01) Penicillin-Streptomycin (Hyclone, Cat. No. SV30010) Cell counting kit-8 (Signalway Antibody, Cat. No. CP002) DMSO (Sigma, Cat. No. D5879) Centrifuge Tube, 15 ml (Excell Bio, Cat. No. CS015-0001) Cell Culture Dish, (Excell Bio, Cat. No. CS016-0128) 96-well cell culture plate (Corning, Cat. No. 3599) Microplate reader (Thermo Multiskan MK3 type)
(2) Experimental Methods:
a. Preparation of Buffer Cell culture medium: RIPM1640 medium, 10% FBS, 1% Pen Strep: PBS buffer: PBS powder was dissolved in 2 L of ultrapure water and sterilized. b. Experimental Procedures 1) LNCaP/AR cells were subcultured in cell culture media, and then the cells in good growth condition were seeded in a 96-well plate at 80 μL/well (1000 cells/well), and cultured overnight in a 37° C., 5% CO2 cell incubator. 2) The drug was prepared into a 10 mM stock solution with dimethyl sulfoxide (DMSO). Prior to use, the stock solution was diluted in a ratio of […] with DMSO, and then diluted at a 3-fold gradient to obtain 9 serial concentrations. Then, each concentration of compound was further diluted in a ratio of 1:200 with the culture medium (to ensure that the DMSO concentration in the culture system was 0.1%), and two wells were set for each concentration. 20 μL of the diluted compound solution was added to the well of the cell culture (with a final concentration of 10 μM, 3.3 μM, 1.1 μM . . . ), and then the plate was gently tapped to thoroughly mix. In addition, the experiment included 3 negative control wells only containing cells and 3 blank control wells only containing culture medium (6 wells were each added with DMSO diluted in a ratio of 1:200 with 20 μL of culture medium). c. Result Detection: 1) After culturing for 6 days, 10 μL of CCK-8 was added to each well, and the plate was further incubated for 1 h in a 37° C., 5% CO2 cell incubator. 2) The absorbance (OD value) was measured at 450 nm with a multifunctional microplate reader. 3) The data was analyzed by the Dose-response-inhibition equation in the software GraphPad Prism5, and the IC50 value was obtained. 2. Biological assay of the inhibition on the proliferation of other drug-resistant prostate cancer cells
Regarding `CC(=O)O[C@@H]1C[C@@H](C(=O)N[C@@H](C)c2ccc(-c3scnc3C)cc2)N(C(=O)[C@@H](NC(=O)COCCCCCCN(c2ccc(-n3ccnc3)cc2)c2cc(-c3c(C)noc3C)ccc2C)C(C)(C)C)C1` [Compound 5, (3R,5S)-1-((S)-2-(2-((6-((4-(1H-imidazol-1-yl)phenyl)(5-(3,5-Dimethylisoxazol-4-yl)-2-methylphenyl)amino)n-hexyl)oxy)acetylamino)-3,3-dimethylbutyryl)-5-(((S)-1-(4-(4-methylthiazol-5-yl)phenyl)ethyl)formylamino)pyrrolidinyl-3-acetate], the IC50 was > 2000 nM.
As to `Cc1ccc(-c2c(C)noc2C)cc1N(CCCCCCOCC(=O)N[C@H](C(=O)N1C[C@H](O)C[C@H]1C(=O)N[C@@H](C)c1ccc(-c2scnc2C)cc1)C(C)(C)C)c1ccc(-n2ccnc2)cc1` [Compound 6, (2S,4R)-1-((S)-2-(2-((6-((4-(1H-imidazol-1-yl)phenyl)(5-(3,5-Dimethylisoxazol-4-yl)-2-methylphenyl)amino)n-hexyl)oxy)acetylamino)-3,3-dimethylbutyryl)-4-hydroxy-N—((S)-1-(4-(4-methylthiazol-5-yl)phenyl)ethyl)pyrrolidinyl-2-formamide], the IC50 is 501 to 2000 nM.
Consider `CC(=O)O[C@@H]1C[C@@H](C(=O)N[C@@H](C)c2ccc(-c3scnc3C)cc2)N(C(=O)[C@@H](NC(=O)COCCCCCCCN(c2ccc(-n3ccnc3)cc2)c2cc(-c3c(C)noc3C)ccc2C)C(C)(C)C)C1` [Compound 7], for which the IC50 is > 2000 nM.
On the same count and under the same terms, the value for `Cc1ccc(-c2c(C)noc2C)cc1N(CCCCCCCOCC(=O)N[C@H](C(=O)N1C[C@H](O)C[C@H]1C(=O)N[C@@H](C)c1ccc(-c2scnc2C)cc1)C(C)(C)C)c1ccc(-n2ccnc2)cc1` [Compound 8] was 501 to 2000 nM; that for `CC(=O)O[C@@H]1C[C@@H](C(=O)N[C@@H](C)c2ccc(-c3scnc3C)cc2)N(C(=O)[C@@H](NC(=O)COCCCCCN(c2ccc(-n3ccnc3)c(Cl)c2)c2cc(-c3c(C)noc3C)ccc2C)C(C)(C)C)C1` [Compound 11, (3R,5S)-1-((S)-2-(2-((5-((3-chloro-4-(1H-imidazol-1-yl)phenyl)(5-(3,5-dimethylisoxazol-4-yl)-2-methylphenyl)amino)n-pentyl)oxy)acetylamino)-3,3-dimethylbutyryl)-5-(((S)-1-(4-(4-methylthiazol-5-yl)phenyl)ethyl)formylamino)pyrrolidinyl-3-acetate] was 501 to 2000 nM; that for `Cc1ccc(-c2c(C)noc2C)cc1N(CCCCCOCC(=O)N[C@H](C(=O)N1C[C@H](O)C[C@H]1C(=O)N[C@@H](C)c1ccc(-c2scnc2C)cc1)C(C)(C)C)c1ccc(-n2ccnc2)c(Cl)c1` [Compound 12, (2S,4R)-1-((S)-2-(2-((5-((3-chloro-4-(1H-imidazol-1-yl)phenyl)(5-(3,5-dimethylisoxazol-4-yl)-2-methylphenyl)amino)n-pentyl)oxy)acetylamino)-3,3-dimethylbutyryl)-4-hydroxy-N—((S)-1-(4-(4-methylthiazol-5-yl)phenyl)ethyl) pyrrolidinyl-2-formamide] was 101 to 500 nM.
On to `Cc1ccc(-c2c(C)noc2C)cc1N(CCCCCOCC(=O)N[C@H](C(=O)N1C[C@H](O)C[C@H]1C(=O)N[C@@H](C)c1ccc(-c2scnc2C)cc1)C(C)(C)C)c1ccc(-n2ccnc2)c(F)c1` [Compound 14, (2S,4R)-1-((S)-2-(2-((5-((3-fluoro-4-(1H-imidazol-1-yl)phenyl)(5-(3,5-dimethylisoxazol-4-yl)-2-methylphenyl)amino)n-pentyl)oxy)acetylamino)-3,3-dimethylbutyryl)-4-hydroxy-N—((S)-1-(4-(4-methylthiazol-5-yl)phenyl)ethyl)pyrrolidinyl-2-formamide], for which the IC50 was > 2000 nM.
Regarding `Cc1ccc(-c2c(C)noc2C)cc1N(CCCCCOCC(=O)N[C@H](C(=O)N1C[C@H](O)C[C@H]1C(=O)N[C@@H](C)c1ccc(-c2scnc2C)cc1)C(C)(C)C)c1ccc(F)c(-n2ccnc2)c1` [Compound 16], the IC50 was > 2000 nM.
Turning to `CC(=O)O[C@@H]1C[C@@H](C(=O)N[C@@H](C)c2ccc(-c3scnc3C)cc2)N(C(=O)[C@@H](NC(=O)COCCCCCN(c2ccc(-n3ccnc3)cc2)c2cc3c(C)noc3cc2C)C(C)(C)C)C1` [Compound 17, (3R,5S)-1-((S)-2-(2-((5-((4-(1H-imidazol-1-yl)phenyl)(3,6-dimethylbenzo[d]isoxazol-5-yl)amino)pentyl)oxy)acetamido)-3,3-dimethylbutyryl)-5-((S)-1-(4-(4-methylthiazol-5-yl)phenyl)ethyl)carbamoyl)pyrrolidine-3-yl acetate], the IC50 is > 2000 nM.
Consider `CC(=O)O[C@@H]1C[C@@H](C(=O)N[C@@H](C)c2ccc(-c3scnc3C)cc2)N(C(=O)[C@@H](NC(=O)COCCCCCN(c2ccc(-n3ccnc3)cc2)c2cc3onc(C)c3cc2C)C(C)(C)C)C1` [Compound 18, (3R,5S)-1-((S)-2-(2-((5-((4-(1H-imidazol-1-yl)phenyl)(3,5-dimethylbenzo[d]isoxazol-6-yl)amino)pentyl)oxy)acetamido)-3,3-dimethylbutyryl)-5-((S)-1-(4-(4-methylthiazol-5-yl)phenyl)ethyl)carbamoyl)pyrrolidine-3-yl acetate], for which the IC50 was > 2000 nM.
Regarding `Cc1ccc(-c2c(C)noc2C)cc1N(CCCCCOCC(=O)N[C@H](C(=O)N1C[C@H](O)C[C@H]1C(=O)N[C@@H](C)c1ccc(-c2scnc2C)cc1)C(C)(C)C)c1ccc(-n2ccnn2)c(Br)c1` [Compound 19], the IC50 was < 100 nM.

The same test, now with this note: LNCaP/AR cells, 6 days culture, CCK-8; read-out: LNCap/AR IC50.
On to `CC(=O)O[C@@H]1C[C@@H](C(=O)N[C@@H](C)c2ccc(-c3scnc3C)cc2)N(C(=O)[C@@H](NC(=O)COCCCCCN(c2ccc(-n3ccnc3)c(Br)c2)c2cc(-c3c(C)noc3C)ccc2C)C(C)(C)C)C1` [Compound 9, (3R,5S)-1-((S)-2-(2-((5-((3-bromo-4-(1H-imidazol-1-yl)phenyl)(5-(3,5-dimethylisoxazol-4-yl)-2-methylphenyl)amino)n-pentyl)oxy)acetylamino)-3,3-dimethylbutyryl)-5-(((S)-1-(4-(4-methylthiazol-5-yl)phenyl)ethyl)formylamino)pyrrolidinyl-3-acetate], for which the IC50 lay in the range of 501 to 2000 nM.

Staying with this test, now noted: LNCaP/AR, 144 h, read-out: LNCap/AR IC50.
On to `CCN(c1ccc(C#N)c(Cl)c1)c1cc(-c2c(C)nn(CCCCCOCC(=O)N[C@H](C(=O)N3C[C@H](O)C[C@H]3C(=O)N[C@@H](C)c3ccc(-c4scnc4C)cc3)C(C)(C)C)c2C)ccc1C` [Compound 1], for which the IC50 is > 2000 nM.
The same measure, in the same setting: the value for `CCN(c1ccc(C#N)c(Cl)c1)c1cc(-c2nn(CCCCCOCC(=O)N[C@H](C(=O)N3C[C@H](O)C[C@H]3C(=O)N[C@@H](C)c3ccc(-c4scnc4C)cc3)C(C)(C)C)cc2C)ccc1C` [Compound 2] was > 2000 nM.
On to `CC(=O)O[C@@H]1C[C@@H](C(=O)N[C@@H](C)c2ccc(-c3scnc3C)cc2)N(C(=O)[C@@H](NC(=O)COCCCCCN(c2ccc(C#N)c(Cl)c2)c2cc(-c3c(C)noc3C)ccc2C)C(C)(C)C)C1` [Compound 3], for which the IC50 fell in the range of 101 to 500 nM.
As to `CC(=O)O[C@@H]1C[C@@H](C(=O)N[C@@H](C)c2ccc(-c3scnc3C)cc2)N(C(=O)[C@@H](NC(=O)COCCCCCN(c2ccc(C#N)c(C(F)(F)F)c2)c2cc(-c3c(C)noc3C)ccc2C)C(C)(C)C)C1` [Compound 4], the IC50 is > 2000 nM.
As to `CC(=O)O[C@@H]1C[C@@H](C(=O)N[C@@H](C)c2ccc(-c3scnc3C)cc2)N(C(=O)[C@@H](NC(=O)COCCCCCN(c2ccc(-n3ccnc3)c(F)c2)c2cc(-c3c(C)noc3C)ccc2C)C(C)(C)C)C1` [Compound 13, (3R,5S)-1-((S)-2-(2-((5-((3-fluoro-4-(1H-imidazol-1-yl)phenyl)(5-(3,5-dimethylisoxazol-4-yl)-2-methylphenyl)amino)n-pentyl)oxy)acetylamino)-3,3-dimethylbutyryl)-5-(((S)-1-(4-(4-methylthiazol-5-yl)phenyl)ethyl)formylamino)pyrrolidinyl-3-acetate], the IC50 was > 2000 nM.
Consider `CC(=O)O[C@@H]1C[C@@H](C(=O)N[C@@H](C)c2ccc(-c3scnc3C)cc2)N(C(=O)[C@@H](NC(=O)COCCCCCN(c2ccc(F)c(-n3ccnc3)c2)c2cc(-c3c(C)noc3C)ccc2C)C(C)(C)C)C1` [Compound 15], for which the IC50 is > 2000 nM.
